Patent publication US7772233B2, “Arylamino N-heteroaryl compounds as MEK inhibitors” (Merck Serono, S.A., priority 2006, dated 2010)

Assays:
Murine colon C26 cells = test: Tumor Cell Proliferation Assay (ATP Lite), C26; assay type: cell-based; settings: Mus musculus, 96 h, 4 days incubation, ATPlite
Protocol: (§1) Assay 2: Tumor Cell Proliferation Assays (ATP Lite)
(§2) Murine colon C26 (1500 cells/well), human melanoma A375 (2000 cells/well), or human pancreatic MiaPaCa-2 cells (2000 cells/well) were plated in white, 96 well plates (Corning) in growth media (DMEM with 10% fetal bovine serum, 2 mM glutamine for C26 and MiaPaCa-2, and RPMI with 10% fetal bovine serum, 2 mM glutamine for A375) and cultured overnight at 37° C. in a humidified, 5% CO2 incubator. Inhibitors were serially diluted in 100% DMSO and subsequently added to the cells, in growth media, to reach a final concentration of 0.25% DMSO. The cells were incubated for 4 days in the presence of the test compounds and the proliferation was quantitated using the ATPlite cell proliferation kit (Packard). Results of cell proliferation assay are shown in Table 1. columns 3-5, where “+++” indicates IC50 values below 1 μM, “++” indicates IC50 values below 10 μM and above 1 μM, and “+” indicates IC50 values above 10 μM.

[1] = test system: human melanoma A375 cells; test: Tumor Cell Proliferation Assay (ATP Lite), A375; assay type: cell-based; settings: A-375, 96 h, 4 days incubation, ATPlite
Protocol: as §1, §2

[2] = test system: human pancreatic MiaPaCa-2 cells; test: Tumor Cell Proliferation Assay (ATP Lite), MiaPaCa-2; assay type: cell-based; settings: MIA PaCa-2, 96 h, 4 days incubation, ATPlite, read-out: MiaPaCa2
Protocol: as §1, §2

Human Mek1 Kinase = Human Mek1 Kinase (Homo sapiens, UniProt Q02750, S218E/S222E); test: MEK-1 Enzyme Assay (LANCE-HTRF); assay type: biochemical; settings: constitutively active MEK-1EE, ERK-2K52A substrate, 9 μM ATP, 1.5 hrs room temperature
Protocol: Assay 1: MEK-1 Enzyme Assay (LANCE-HTRF)
Inhibition of Human Mek1 Kinase Activity was Monitored with a Homogenous, fluorescence-based assay. The assay uses time resolved fluorescence resonance energy transfer to probe for phosphorylation of ERK1 by MEK1. The detailed procedure is described in the following:
Constititutively active MEK-1EE (150 ng/well) and ERK-2K52A (110 ng/well) were incubated in black, 384 well Optiplates (Perkin Elmer) for 1.5 hrs at room temperature, in the presence of increasing concentrations of inhibitors. The total reaction volume was 50 μl. The inhibitors were serial diluted in kinase buffer (9 μM ATP, 50 mM Tris-HCl pH 8.0, 10 mM MgCl2, 1 mM DTT and 100 μM Na3VO4), to a final concentration of 1% DMSO. At the end of the incubation, the enzyme reaction was quenched by adding 50 μl of assay buffer containing 50 mM Tris-HCl, 50 mM EDTA, 0.1% BSA and a mixture of 1.25 ug/ml europium labeled anti-phosphotyrosine mAb (Perkin Elmer) and 5 μg/ml of allophycocyanin labeled anti-GST antibody (CIS-US). Plates were agitated on a plate shaker for 30 minutes and the phosphorylation of the ERK-2K52A substrate was measured by homogeneous time resolved fluorescence (HTRF) at 340 nm excitation and 665 nm (Europium)/615 nm (APC) emission filters on the VICTOR V fluorescence plate reader. Phosphorylation is expressed as a ratio of 665 nM signal×10,000/615 nM signal. To assess the inhibitory potential of the compounds, IC50-values were determined. Results are shown in Table 1, column 2, where “+++” indicates IC50 values below 1 μM, “++” indicates IC50 values below 10 μM and above 1 μM, and “+” indicates IC50 values above 10 μM.

Sequence of Human Mek1 Kinase (Q02750 whole entry S218E/S222E): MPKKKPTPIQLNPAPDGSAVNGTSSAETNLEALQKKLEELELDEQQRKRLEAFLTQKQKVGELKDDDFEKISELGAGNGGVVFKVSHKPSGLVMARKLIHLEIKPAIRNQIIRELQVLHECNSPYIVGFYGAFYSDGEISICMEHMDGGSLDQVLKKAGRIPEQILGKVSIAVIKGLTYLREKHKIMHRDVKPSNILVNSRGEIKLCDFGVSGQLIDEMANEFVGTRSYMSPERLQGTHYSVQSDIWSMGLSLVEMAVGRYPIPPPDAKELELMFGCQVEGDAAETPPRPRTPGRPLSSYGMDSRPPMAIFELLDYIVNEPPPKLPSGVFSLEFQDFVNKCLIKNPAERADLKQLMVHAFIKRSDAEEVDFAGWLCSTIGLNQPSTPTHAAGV

| SMILES | IC50 (Murine colon C26 cells) | IC50 [1] | IC50 [2] | IC50 (Human Mek1 Kinase) |
| --- | --- | --- | --- | --- |
| O=C(O)c1cc(Cl)nnc1Nc1ccc(I)cc1F [Example 4, 6-Chloro-3-(2-fluoro-4-iodo-phenylamino)-pyridazine-4-carboxylic acid] | > 10 µM | > 10 µM | > 10 µM | < 1 µM |
| O=C(O)c1ncc(F)cc1Nc1ccc(I)cc1F [Example 2, 5-Fluoro-3-(2-fluoro-4-iodo-phenylamino)-pyridine-2-carboxylic acid] |  |  |  | 1 to 10 µM |
| O=C(O)c1cc(N2CCOCC2)nnc1Nc1ccc(I)cc1F [Example 5, 3-(2-Fluoro-4-iodo-phenylamino)-6-morpholin-4-yl-pyridazine-4-carboxylic acid] | > 10 µM | > 10 µM | > 10 µM | 1 to 10 µM |
| NC(=O)c1ncc(F)cc1Nc1ccc(I)cc1F [Example 3, 5-Fluoro-3-(2-fluoro-4-iodo-phenylamino)-pyridine-2-carboxylic acid amide] | > 10 µM | 1 to 10 µM | > 10 µM | < 1 µM |
| COc1cc(C(=O)O)c(Nc2ccc(I)cc2F)nn1 [Example 6, 3-(2-Fluoro-4-iodo-phenylamino)-6-methoxy-pyridazine-4-carboxylic acid] | > 10 µM | > 10 µM | > 10 µM | > 10 µM |
| N#Cc1ncc(F)cc1Nc1ccc(I)cc1F [Example 1, 5-Fluoro-3-(2-fluoro-4-iodo-phenylamino)-pyridine-2-carbonitrile] |  |  |  | > 10 µM |
| CC1(C)OC[C@H](CONC(=O)c2cc(Cl)nnc2Nc2ccc(I)cc2F)O1 [Example 7, 6-Chloro-3-(2-fluoro-4-iodo-phenylamino)-pyridazine-4-carboxylic acid (2,2-dimethyl-[1,3]dioxolan-4-ylmethoxy)-amide] | > 10 µM | > 10 µM | > 10 µM | > 10 µM |

Continued, values first:

| IC50 (Murine colon C26 cells) | IC50 [1] | IC50 [2] | IC50 (Human Mek1 Kinase) | SMILES |
| --- | --- | --- | --- | --- |
| > 10 µM | 1 to 10 µM | > 10 µM | 1 to 10 µM | O=C(NOC[C@H](O)CO)c1ccc(F)nc1Nc1ccc(I)cc1F [Example 13, N—[(R)-2,3-Dihydroxy-propoxy]-6-fluoro-2-[(2-fluoro-4-iodo-phenylamino)]-nicotinamide] |
|  |  |  | > 10 µM | O=C(NOC[C@H](O)CO)c1cc(Cl)nnc1Nc1ccc(I)cc1F [Example 8, 6-Chloro-3-(2-fluoro-4-iodo-phenylamino)-pyridazine-4-carboxylic acid (2,3-dihydroxy-propoxy)-amide] |
| > 10 µM | > 10 µM | > 10 µM | < 1 µM | O=C(O)c1ccc(F)nc1Nc1ccc(I)cc1F [Example 11, 6-fluoro-2-[(2-fluoro-4-iodophenyl)amino]nicotinic acid] |
|  |  |  | 1 to 10 µM | CC1(C)OC[C@H](CONC(=O)c2ccc(F)nc2Nc2ccc(I)cc2F)O1 [Example 12, N-{[(4R)-2,2-dimethyl-1,3-dioxolan-4-yl]methoxy}-6-fluoro-2-[(2-fluoro-4-iodophenyl)amino]nicotinamide] |
| > 10 µM | 1 to 10 µM | 1 to 10 µM | < 1 µM | NC(=O)c1cc(Cl)nnc1Nc1ccc(I)cc1F [Example 9, 6-Chloro-3-(2-fluoro-4-iodo-phenylamino)-pyridazine-4-carboxylic acid amide] |
|  |  |  | 1 to 10 µM | O=C(NCCN1CCOCC1)c1cc(Cl)nnc1Nc1ccc(I)cc1F [Example 10, 6-Chloro-3-(2-fluoro-4-iodo-phenylamino)-pyridazine-4-carboxylic acid (2-morpholin-4-yl-ethyl)-amide] |
